Read-outs that look alike come from different tables or passages of the source.
Tests used:
EGFR L858R = target: T1, EGFR L858R (Homo sapiens, UniProt P00533, L858R); assay: Biochemical EGFR inhibition assay (Caliper mobility shift), EGFR L858R; settings: read-out: Enz EGFR_L858R IC50
T1 construct: purchased SignalChem E10-122BG

EGFR (d746-750) = target: T2, EGFR (d746-750) (Homo sapiens, UniProt P00533, DEL746-750); assay: Biochemical EGFR inhibition assay (Caliper mobility shift), EGFR (d746-750); settings: read-out: Enz EGFR_Exon19-del746-750 IC50
T2 construct: purchased SignalChem E10-122JG

[1] = target: intracellular phosphorylation of EGFR (Tyr1068) in PC-9 cells (Ex19Del) (Homo sapiens, UniProt P00533, DEL746-750); assay: PC-9 pEGFR AlphaLISA assay; format: cell-based; settings: 4 hours compound incubation, read-out: Ext pEGFR_PC-9 Ex19Del IC50
[2] = 1.0 mM ATP or ATP Km, room temperature (25° C.)

T1 sequence (P00533 25-1210 L858R): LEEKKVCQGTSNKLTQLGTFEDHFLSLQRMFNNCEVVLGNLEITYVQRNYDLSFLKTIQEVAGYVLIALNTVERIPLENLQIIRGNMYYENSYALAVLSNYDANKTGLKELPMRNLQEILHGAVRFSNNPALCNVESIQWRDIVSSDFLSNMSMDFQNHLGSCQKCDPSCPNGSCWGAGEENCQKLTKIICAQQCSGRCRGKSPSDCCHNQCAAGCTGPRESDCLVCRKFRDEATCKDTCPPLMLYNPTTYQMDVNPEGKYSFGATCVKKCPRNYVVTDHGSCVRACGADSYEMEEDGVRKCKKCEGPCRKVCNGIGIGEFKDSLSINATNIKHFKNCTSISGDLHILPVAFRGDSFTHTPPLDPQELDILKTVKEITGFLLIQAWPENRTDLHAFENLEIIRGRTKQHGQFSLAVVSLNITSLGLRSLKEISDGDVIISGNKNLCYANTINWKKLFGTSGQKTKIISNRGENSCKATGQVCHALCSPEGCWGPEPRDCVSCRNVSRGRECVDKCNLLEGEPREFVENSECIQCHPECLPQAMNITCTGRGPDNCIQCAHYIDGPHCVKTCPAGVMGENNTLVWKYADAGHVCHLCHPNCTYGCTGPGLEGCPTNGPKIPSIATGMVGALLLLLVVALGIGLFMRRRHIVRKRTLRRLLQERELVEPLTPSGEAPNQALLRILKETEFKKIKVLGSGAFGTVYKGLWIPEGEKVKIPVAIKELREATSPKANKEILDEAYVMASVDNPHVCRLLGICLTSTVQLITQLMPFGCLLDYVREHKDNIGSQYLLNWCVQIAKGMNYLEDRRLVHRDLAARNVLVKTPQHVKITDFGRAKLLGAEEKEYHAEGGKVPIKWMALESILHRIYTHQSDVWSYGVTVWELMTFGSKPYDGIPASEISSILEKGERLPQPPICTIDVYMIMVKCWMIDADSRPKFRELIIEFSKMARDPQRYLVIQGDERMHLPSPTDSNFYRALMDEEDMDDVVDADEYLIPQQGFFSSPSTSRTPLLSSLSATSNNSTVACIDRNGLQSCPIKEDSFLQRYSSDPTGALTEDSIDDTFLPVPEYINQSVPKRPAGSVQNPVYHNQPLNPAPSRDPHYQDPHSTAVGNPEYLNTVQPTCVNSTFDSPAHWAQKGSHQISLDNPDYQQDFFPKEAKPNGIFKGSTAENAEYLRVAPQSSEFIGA
T2 sequence (P00533 with tags, fused parts or gaps DEL746-750 limits assumed): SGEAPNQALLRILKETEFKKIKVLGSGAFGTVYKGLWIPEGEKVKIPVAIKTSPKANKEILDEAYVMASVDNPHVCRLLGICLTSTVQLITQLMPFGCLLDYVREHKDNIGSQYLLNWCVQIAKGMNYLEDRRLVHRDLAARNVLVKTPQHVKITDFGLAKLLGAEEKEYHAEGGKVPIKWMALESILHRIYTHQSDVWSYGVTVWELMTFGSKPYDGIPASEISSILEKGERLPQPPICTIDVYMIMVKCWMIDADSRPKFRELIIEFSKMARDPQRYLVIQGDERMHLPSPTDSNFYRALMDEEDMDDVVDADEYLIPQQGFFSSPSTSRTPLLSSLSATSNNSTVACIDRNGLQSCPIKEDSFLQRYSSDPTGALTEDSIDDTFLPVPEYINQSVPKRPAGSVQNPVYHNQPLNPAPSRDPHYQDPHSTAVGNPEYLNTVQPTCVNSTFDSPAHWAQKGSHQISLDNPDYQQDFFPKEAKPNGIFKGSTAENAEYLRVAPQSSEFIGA
intracellular phosphorylation of EGFR (Tyr1068) in PC-9 cells (Ex19Del), sequence (P00533 with tags, fused parts or gaps DEL746-750): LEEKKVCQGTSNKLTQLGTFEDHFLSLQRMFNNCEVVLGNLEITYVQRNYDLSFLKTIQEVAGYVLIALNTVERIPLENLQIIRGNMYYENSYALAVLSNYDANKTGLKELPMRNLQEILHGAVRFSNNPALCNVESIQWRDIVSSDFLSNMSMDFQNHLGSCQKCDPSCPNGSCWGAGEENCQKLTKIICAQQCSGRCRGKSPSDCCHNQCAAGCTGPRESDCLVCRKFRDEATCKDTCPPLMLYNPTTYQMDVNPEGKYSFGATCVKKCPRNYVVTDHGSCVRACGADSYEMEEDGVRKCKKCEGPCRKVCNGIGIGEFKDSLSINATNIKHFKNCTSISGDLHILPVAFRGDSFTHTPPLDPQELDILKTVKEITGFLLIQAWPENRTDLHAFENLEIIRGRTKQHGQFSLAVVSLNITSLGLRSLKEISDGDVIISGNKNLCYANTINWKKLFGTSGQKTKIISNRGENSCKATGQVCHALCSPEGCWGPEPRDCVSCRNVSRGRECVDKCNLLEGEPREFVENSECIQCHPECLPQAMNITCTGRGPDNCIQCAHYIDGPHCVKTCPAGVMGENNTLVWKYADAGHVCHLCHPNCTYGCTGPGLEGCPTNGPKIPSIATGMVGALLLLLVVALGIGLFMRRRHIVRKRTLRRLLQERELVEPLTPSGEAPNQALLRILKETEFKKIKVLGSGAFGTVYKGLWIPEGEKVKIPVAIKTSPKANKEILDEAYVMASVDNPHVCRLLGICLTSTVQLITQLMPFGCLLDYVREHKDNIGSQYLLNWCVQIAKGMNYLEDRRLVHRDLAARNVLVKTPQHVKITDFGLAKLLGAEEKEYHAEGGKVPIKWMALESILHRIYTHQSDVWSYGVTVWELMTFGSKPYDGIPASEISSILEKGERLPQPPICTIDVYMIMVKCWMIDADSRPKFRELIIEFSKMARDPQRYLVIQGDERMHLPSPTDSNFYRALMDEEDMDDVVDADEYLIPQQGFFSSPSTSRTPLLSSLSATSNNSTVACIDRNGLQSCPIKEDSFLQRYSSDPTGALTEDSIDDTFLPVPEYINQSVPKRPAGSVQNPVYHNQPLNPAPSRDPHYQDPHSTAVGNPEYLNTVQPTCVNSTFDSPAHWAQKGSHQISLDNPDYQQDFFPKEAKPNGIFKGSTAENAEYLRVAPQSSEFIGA

Compound	IC50 (EGFR L858R)	IC50 (EGFR (d746-750))	IC50 [1]	IC50 (EGFR L858R; [2])	IC50 (EGFR (d746-750); [2])
CN1CCC[C@@H](Oc2cc(-c3cnn(C)c3)cc3ncnc(Nc4ccc5ncccc5c4F)c23)C1 [Example 36, (R)—N-(5-fluoroquinolin-6-yl)-7-(1-methyl-1H-pyrazol-4-yl)-5-((1-methylpiperidin-3-yl)oxy)quinazolin-4-amine]	0.0101 to 0.05 µM	< 0.01 µM	0.0101 to 0.05 µM	–	–
CN1CC[C@H](Oc2cc(-c3cnn(C)c3)cc3ncnc(Nc4ccc5ncccc5c4F)c23)[C@@H](F)C1 (single isomer, unassigned) [Example 144, 5-(((3S,4S)-3-fluoro-1-methylpiperidin-4-yl)oxy)-N-(5-fluoroquinolin-6-yl)-7-(1-methyl-1H-pyrazol-4-yl)quinazolin-4-amine or 5-(((3R,4R)-3-fluoro-1-methylpiperidin-4-yl)oxy)-N-(5-fluoroquinolin-6-yl)-7-(1-methyl-1H-pyrazol-4-yl)quinazolin-4-amine]	–	–	0.0101 to 0.05 µM	< 0.01 µM	< 0.01 µM
C[C@H](CN(C)C)Oc1cc(C2CC2)cc2ncnc(Nc3ccc4ncccc4c3F)c12 [Example 149, (R)-7-cyclopropyl-5-((1-(dimethylamino)propan-2-yl)oxy)-N-(5-fluoroquinolin-6-yl)quinazolin-4-amine]	> 0.0501 µM	0.0101 to 0.05 µM	> 0.0501 µM	–	–
C[C@@H](CN(C)C)Oc1cc(-c2cnn(C)c2)cc2ncnc(Nc3ccc4ncccc4c3F)c12 (single isomer, unassigned) [Example 4, (S)-5-((1-(dimethylamino)propan-2-yl)oxy)-N-(5-fluoroquinolin-6-yl)-7-(1-methyl-1H-pyrazol-4-yl)quinazolin-4-amine or (R)-5-((1-(dimethylamino)propan-2-yl)oxy)-N-(5-fluoroquinolin-6-yl)-7-(1-methyl-1H-pyrazol-4-yl)quinazolin-4-amine]	–	–	> 0.0501 µM	0.0101 to 0.05 µM	0.0101 to 0.05 µM
C[C@H](Oc1cc(-c2cnn(C)c2)cc2ncnc(Nc3ccc4ncccc4c3F)c12)[C@@H]1COCCN1 [Example 157, N-(5-fluoroquinolin-6-yl)-7-(1-methyl-1H-pyrazol-4-yl)-5-((S)-1-((S)-morpholin-3-yl)ethoxy)quinazolin-4-amine]	> 0.0501 µM	> 0.0501 µM	> 0.0501 µM	–	–
CC(=O)N1C2CC1CN(c1cc(O[C@H](C)CN(C)C)c3c(Nc4ccc5ncccc5c4F)ncnc3c1)C2 [Example 151, 1-(3-(5-(((R)-1-(dimethylamino)propan-2-yl)oxy)-4-((5-fluoroquinolin-6-yl)amino)quinazolin-7-yl)-3,6-diazabicyclo[3.1.1]heptan-6-yl)ethan-1-one]	> 0.0501 µM	0.0101 to 0.05 µM	> 0.0501 µM	–	–
CCNC[C@@H](C)Oc1cc(-c2cnn(C)c2)cc2ncnc(Nc3ccc4ncccc4c3F)c12 [Example 102, (R)-5-((1-(ethylamino)propan-2-yl)oxy)-N-(5-fluoroquinolin-6-yl)-7-(1-methyl-1H-pyrazol-4-yl)quinazolin-4-amine]	0.0101 to 0.05 µM	0.0101 to 0.05 µM	> 0.0501 µM	–	–
CN(C)C[C@@H](Oc1cc(-c2cnn(C)c2)cc2ncnc(Nc3ccc4ncccc4c3F)c12)C(F)F (single isomer, unassigned) [Example 38, (R)-5-((3-(dimethylamino)-1,1-difluoropropan-2-yl)oxy)-N-(5-fluoroquinolin-6-yl)-7-(1-methyl-1H-pyrazol-4-yl)quinazolin-4-amine or (S)-5-((3-(dimethylamino)-1,1-difluoropropan-2-yl)oxy)-N-(5-fluoroquinolin-6-yl)-7-(1-methyl-1H-pyrazol-4-yl)quinazolin-4-amine]	–	–	0.0101 to 0.05 µM	0.0101 to 0.05 µM	< 0.01 µM
C[C@@H](Oc1cc(-c2cnn(C)c2)cc2ncnc(Nc3ccc4ncccc4c3F)c12)C1COC1 (single isomer, unassigned) [Example 1, (R)—N-(5-fluoroquinolin-6-yl)-7-(1-methyl-1H-pyrazol-4-yl)-5-(1-(oxetan-3-yl)ethoxy)quinazolin-4-amine or (S)—N-(5-fluoroquinolin-6-yl)-7-(1-methyl-1H-pyrazol-4-yl)-5-(1-(oxetan-3-yl)ethoxy)quinazolin-4-amine]	–	–	≤ 0.01 µM	< 0.01 µM	< 0.01 µM

Other lines, results leading:

IC50 (EGFR L858R)	IC50 (EGFR (d746-750))	IC50 [1]	IC50 (EGFR L858R; [2])	IC50 (EGFR (d746-750); [2])	Compound
–	–	≤ 0.01 µM	< 0.01 µM	< 0.01 µM	CO[C@@H]1CCN(c2cc(O[C@H](C)C3COC3)c3c(Nc4ccc5ncccc5c4F)ncnc3c2)C1 (single isomer, unassigned) [Example 85a, N-(5-fluoroquinolin-6-yl)-7-((R)-3-methoxypyrrolidin-1-yl)-5-((R)-1-(oxetan-3-yl)ethoxy)quinazolin-4-amine or N-(5-fluoroquinolin-6-yl)-7-((S)-3-methoxypyrrolidin-1-yl)-5-((R)-1-(oxetan-3-yl)ethoxy)quinazolin-4-amine]
0.0101 to 0.05 µM	< 0.01 µM	0.0101 to 0.05 µM	–	–	C[C@H](CN(C)C)Oc1cc(N2CCC(C)(O)CC2)cc2ncnc(Nc3ccc4ncccc4c3F)c12 [Example 94, (R)-1-(5-((1-(dimethylamino)propan-2-yl)oxy)-4-((5-fluoroquinolin-6-yl)amino)quinazolin-7-yl)-4-methylpiperidin-4-ol]
< 0.01 µM	< 0.01 µM	≤ 0.01 µM	–	–	COc1cc(O[C@H](C)C2COC2)c2c(Nc3ccc4ncccc4c3F)ncnc2c1 [Example 56, (R)—N-(5-fluoroquinolin-6-yl)-7-methoxy-5-(1-(oxetan-3-yl)ethoxy)quinazolin-4-amine]
< 0.01 µM	< 0.01 µM	≤ 0.01 µM	–	–	C[C@H](CN(C)C)Oc1cc(N2CC3(COC3)C2)cc2ncnc(Nc3c(F)cc4ncccc4c3F)c12 [Example 39, (R)—N-(5,7-difluoroquinolin-6-yl)-5-((1-(dimethylamino)propan-2-yl)oxy)-7-(2-oxa-6-azaspiro[3.3]heptan-6-yl)quinazolin-4-amine]
< 0.01 µM	< 0.01 µM	≤ 0.01 µM	–	–	C[C@@H](Oc1cc(N2CC[C@H](C(C)(C)O)C2)cc2ncnc(Nc3ccc4ncccc4c3F)c12)C1COC1 [Example 62, 2—((S)-1-(4-((5-fluoroquinolin-6-yl)amino)-5-((R)-1-(oxetan-3-yl)ethoxy)quinazolin-7-yl)pyrrolidin-3-yl)propan-2-ol]
0.0101 to 0.05 µM	< 0.01 µM	≤ 0.01 µM	–	–	C[C@H](CN(C)C)Oc1cc(-c2cnn(C)c2)cc2ncnc(Nc3cnc4ncccc4c3)c12 [Example 40, (R)-5-((1-(dimethylamino)propan-2-yl)oxy)-7-(1-methyl-1H-pyrazol-4-yl)-N-(1,8-naphthyridin-3-yl)quinazolin-4-amine]
< 0.01 µM	< 0.01 µM	≤ 0.01 µM	–	–	C[C@H](CN(C)C)Oc1cc(-c2cnn(C)c2)cc2ncnc(Nc3ccc4ncc(F)cc4c3)c12 [Example 7, (R)-5-((1-(dimethylamino)propan-2-yl)oxy)-N-(3-fluoroquinolin-6-yl)-7-(1-methyl-1H-pyrazol-4-yl)quinazolin-4-amine]
< 0.01 µM	< 0.01 µM	≤ 0.01 µM	–	–	C[C@@H](Oc1cc(N2CCC(N(C)C)CC2)cc2ncnc(Nc3ccc4ncccc4c3F)c12)C1COC1 [Example 78, (R)-7-(4-(dimethylamino)piperidin-1-yl)-N-(5-fluoroquinolin-6-yl)-5-(1-(oxetan-3-yl)ethoxy)quinazolin-4-amine]
< 0.01 µM	< 0.01 µM	≤ 0.01 µM	–	–	COCC(CO)[C@@H](C)Oc1cc(-c2cnn(C)c2)cc2ncnc(Nc3ccc4ncccc4c3F)c12 (stereo partly drawn) [Example 112, (3R)-3-((4-((5-fluoroquinolin-6-yl)amino)-7-(1-methyl-1H-pyrazol-4-yl)quinazolin-5-yl)oxy)-2-(methoxymethyl)butan-1-ol]
< 0.01 µM	< 0.01 µM	≤ 0.01 µM	–	–	C[C@H](CN(C)C)Oc1cc(N2CC[C@H](C(C)(C)O)C2)cc2ncnc(Nc3c(F)cc4ncccc4c3F)c12 [Example 88, 2—((S)-1-(4-((5,7-difluoroquinolin-6-yl)amino)-5-(((R)-1-(dimethylamino)propan-2-yl)oxy)quinazolin-7-yl)pyrrolidin-3-yl)propan-2-ol]
0.0101 to 0.05 µM	< 0.01 µM	≤ 0.01 µM	–	–	C[C@H](CN(C)C)Oc1cc(N2CCOC(C(F)F)C2)cc2ncnc(Nc3ccc4ncccc4c3F)c12 (mixture of isomers) [Example 98, 7—((S)-2-(difluoromethyl)morpholino)-5-(((R)-1-(dimethylamino)propan-2-yl)oxy)-N-(5-fluoroquinolin-6-yl) and 7-((R)-2-(difluoromethyl)morpholino)-5-(((R)-1-(dimethylamino)propan-2-yl)oxy)-N-(5-fluoroquinolin-6-yl)quinazolin-4-amine]
0.0101 to 0.05 µM	< 0.01 µM	0.0101 to 0.05 µM	–	–	C[C@H](CN(C)C)Oc1cc(N2CCOC[C@@H]2CO)cc2ncnc(Nc3ccc4ncccc4c3F)c12 [Example 92, ((S)-4-(5-(((R)-1-(dimethylamino)propan-2-yl)oxy)-4-((5-fluoroquinolin-6-yl)amino)quinazolin-7-yl)morpholin-3-yl)methanol]
< 0.01 µM	< 0.01 µM	≤ 0.01 µM	–	–	[2H]c1ccc2c(F)c(Nc3ncnc4cc(-c5cnn(C)c5)cc(O[C@H](C)CN(C)C)c34)ccc2n1 [Example 155, (R)-5-((1-(dimethylamino)propan-2-yl)oxy)-N-(5-fluoroquinolin-6-yl-2-d)-7-(1-methyl-1H-pyrazol-4-yl)quinazolin-4-amine]

From patent US12662465B2, “EGFR inhibitors” (Blueprint Medicines Corporation, priority 2021, dated 2026)
